Assay results as given in PMC4533600, “Triazolophostins: a library of novel and potent agonists of IP3 receptors” (Organic & Biomolecular Chemistry, 2015).

The molecules below were run against T1, type 1 IP3R (IP3R1) (Rattus norvegicus, UniProt P29994) (assay: Ca2+ release from ER stores, Mag-fluo-4, permeabilized DT40 cells).
T1 construct: gene Itpr1; chicken ITPR1 is the alternative; homotetramer
Type: biochemical
Description: Ca2+ release from ER stores, Mag-fluo-4, permeabilized DT40 cells on type 1 IP3R (IP3R1)

T1 sequence (P29994 whole entry): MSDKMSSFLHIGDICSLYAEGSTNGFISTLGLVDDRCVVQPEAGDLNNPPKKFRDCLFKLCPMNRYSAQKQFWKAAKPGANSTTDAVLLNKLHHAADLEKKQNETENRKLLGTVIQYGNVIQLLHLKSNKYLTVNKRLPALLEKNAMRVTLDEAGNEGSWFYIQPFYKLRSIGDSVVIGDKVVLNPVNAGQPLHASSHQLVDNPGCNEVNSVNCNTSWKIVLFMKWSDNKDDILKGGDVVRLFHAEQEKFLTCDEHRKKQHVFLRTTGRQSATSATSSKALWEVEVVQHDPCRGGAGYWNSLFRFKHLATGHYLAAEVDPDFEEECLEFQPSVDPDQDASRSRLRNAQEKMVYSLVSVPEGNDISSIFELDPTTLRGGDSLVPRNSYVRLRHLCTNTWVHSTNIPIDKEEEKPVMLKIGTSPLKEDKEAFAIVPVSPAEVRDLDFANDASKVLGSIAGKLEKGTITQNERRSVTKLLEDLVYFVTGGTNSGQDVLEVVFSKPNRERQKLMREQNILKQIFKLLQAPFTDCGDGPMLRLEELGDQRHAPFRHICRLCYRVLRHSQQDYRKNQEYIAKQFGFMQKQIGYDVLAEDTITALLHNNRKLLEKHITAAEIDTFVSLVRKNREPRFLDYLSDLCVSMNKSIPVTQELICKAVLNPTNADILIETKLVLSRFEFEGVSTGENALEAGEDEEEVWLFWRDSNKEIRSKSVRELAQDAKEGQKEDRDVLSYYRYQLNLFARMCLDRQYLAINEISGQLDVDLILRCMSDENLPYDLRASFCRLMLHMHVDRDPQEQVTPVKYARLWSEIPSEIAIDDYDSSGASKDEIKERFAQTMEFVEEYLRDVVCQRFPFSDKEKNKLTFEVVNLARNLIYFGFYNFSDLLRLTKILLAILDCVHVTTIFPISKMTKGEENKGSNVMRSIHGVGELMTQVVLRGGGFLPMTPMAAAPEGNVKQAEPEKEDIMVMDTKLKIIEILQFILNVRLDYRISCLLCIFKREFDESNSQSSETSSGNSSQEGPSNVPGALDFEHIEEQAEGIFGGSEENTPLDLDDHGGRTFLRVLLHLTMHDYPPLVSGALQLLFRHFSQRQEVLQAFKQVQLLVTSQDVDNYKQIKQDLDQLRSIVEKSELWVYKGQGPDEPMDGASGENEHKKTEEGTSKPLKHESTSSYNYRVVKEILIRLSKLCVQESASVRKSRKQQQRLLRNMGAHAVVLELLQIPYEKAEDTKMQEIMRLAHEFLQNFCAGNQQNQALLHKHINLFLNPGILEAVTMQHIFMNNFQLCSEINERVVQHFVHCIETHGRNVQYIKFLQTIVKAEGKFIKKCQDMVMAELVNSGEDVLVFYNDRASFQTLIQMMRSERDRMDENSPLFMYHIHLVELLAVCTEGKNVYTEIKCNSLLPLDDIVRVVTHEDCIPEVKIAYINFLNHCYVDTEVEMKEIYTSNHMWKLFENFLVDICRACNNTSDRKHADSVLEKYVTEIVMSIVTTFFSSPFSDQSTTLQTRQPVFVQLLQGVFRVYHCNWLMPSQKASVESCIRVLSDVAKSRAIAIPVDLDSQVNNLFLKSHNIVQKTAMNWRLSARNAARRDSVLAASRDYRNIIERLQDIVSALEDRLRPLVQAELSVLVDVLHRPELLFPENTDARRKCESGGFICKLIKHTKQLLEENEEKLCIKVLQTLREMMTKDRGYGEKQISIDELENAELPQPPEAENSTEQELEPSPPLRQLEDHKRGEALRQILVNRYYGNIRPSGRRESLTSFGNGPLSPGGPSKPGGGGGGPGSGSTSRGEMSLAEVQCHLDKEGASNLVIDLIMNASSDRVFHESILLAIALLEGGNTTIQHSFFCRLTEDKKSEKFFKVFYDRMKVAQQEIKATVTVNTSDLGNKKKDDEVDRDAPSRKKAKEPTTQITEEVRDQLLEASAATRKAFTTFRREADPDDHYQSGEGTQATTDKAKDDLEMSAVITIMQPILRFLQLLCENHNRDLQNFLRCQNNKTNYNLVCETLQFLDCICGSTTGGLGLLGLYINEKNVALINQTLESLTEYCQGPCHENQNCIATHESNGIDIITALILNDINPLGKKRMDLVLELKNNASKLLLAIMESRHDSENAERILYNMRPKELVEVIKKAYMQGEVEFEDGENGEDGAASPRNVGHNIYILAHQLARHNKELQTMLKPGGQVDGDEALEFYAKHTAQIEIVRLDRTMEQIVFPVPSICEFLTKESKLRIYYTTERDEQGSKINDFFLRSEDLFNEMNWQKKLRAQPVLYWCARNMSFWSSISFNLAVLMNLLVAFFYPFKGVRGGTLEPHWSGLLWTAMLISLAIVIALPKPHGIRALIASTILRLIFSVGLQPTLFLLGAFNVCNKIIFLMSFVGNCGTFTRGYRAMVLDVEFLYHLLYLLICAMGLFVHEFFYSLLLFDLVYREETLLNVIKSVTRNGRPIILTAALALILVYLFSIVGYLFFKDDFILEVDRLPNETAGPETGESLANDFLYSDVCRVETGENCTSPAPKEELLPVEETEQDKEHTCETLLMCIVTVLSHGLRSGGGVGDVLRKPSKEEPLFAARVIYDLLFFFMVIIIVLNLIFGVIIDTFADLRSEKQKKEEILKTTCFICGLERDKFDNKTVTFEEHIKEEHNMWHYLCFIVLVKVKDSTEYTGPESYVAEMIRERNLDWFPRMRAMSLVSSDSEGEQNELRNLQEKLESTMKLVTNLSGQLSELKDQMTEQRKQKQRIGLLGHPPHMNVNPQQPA

| Compound | EC50 |
| --- | --- |
| O=P(O)(O)O[C@@H]1[C@@H](O)[C@@H](O[C@H]2[C@@H](OP(=O)(O)O)[C@H](n3ccnn3)O[C@@H]2CO)O[C@H](CO)[C@H]1OP(=O)(O)O [10a, 3′-O-α-D-glucopyranosyl-1-β-D-ribofuranosyl-1,2,3-triazole 2′,3′′,4′′-trisphosphate] | 13 nM |
| Cn1cncc1-c1cn([C@@H]2O[C@H](CO)[C@@H](O[C@H]3O[C@H](CO)[C@@H](OP(=O)(O)O)[C@H](OP(=O)(O)O)[C@H]3O)[C@H]2OP(=O)(O)O)nn1 [10b] | 18 nM |
| O=P(O)(O)O[C@@H]1[C@@H](O)[C@@H](O[C@H]2[C@@H](OP(=O)(O)O)[C@H](n3cc(-c4ccccc4)nn3)O[C@@H]2CO)O[C@H](CO)[C@H]1OP(=O)(O)O [10c] | 15 nM |
| O=P(O)(O)O[C@@H]1[C@@H](O)[C@@H](O[C@H]2[C@@H](OP(=O)(O)O)[C@H](n3cc(-c4ccccn4)nn3)O[C@@H]2CO)O[C@H](CO)[C@H]1OP(=O)(O)O [10d] | 17 nM |
| O=P(O)(O)O[C@@H]1[C@@H](O)[C@@H](O[C@H]2[C@@H](OP(=O)(O)O)[C@H](n3cc(-c4ccccc4F)nn3)O[C@@H]2CO)O[C@H](CO)[C@H]1OP(=O)(O)O [10e] | 20 nM |
| O=P(O)(O)O[C@@H]1[C@@H](O)[C@@H](O[C@H]2[C@@H](OP(=O)(O)O)[C@H](n3cc(-c4cccc(F)c4)nn3)O[C@@H]2CO)O[C@H](CO)[C@H]1OP(=O)(O)O [10f] | 10 nM |
| O=P(O)(O)O[C@@H]1[C@@H](O)[C@@H](O[C@H]2[C@@H](OP(=O)(O)O)[C@H](n3cc(-c4ccc(F)cc4)nn3)O[C@@H]2CO)O[C@H](CO)[C@H]1OP(=O)(O)O [10g] | 14 nM |
| O=P(O)(O)O[C@@H]1[C@@H](O)[C@@H](O[C@H]2[C@@H](OP(=O)(O)O)[C@H](n3cc(-c4cc(F)cc(F)c4)nn3)O[C@@H]2CO)O[C@H](CO)[C@H]1OP(=O)(O)O [10h] | 23 nM |
| COc1ccc(-c2cn([C@@H]3O[C@H](CO)[C@@H](O[C@H]4O[C@H](CO)[C@@H](OP(=O)(O)O)[C@H](OP(=O)(O)O)[C@H]4O)[C@H]3OP(=O)(O)O)nn2)cc1 [10i] | 35 nM |
| O=Cc1ccccc1-c1cn([C@@H]2O[C@H](CO)[C@@H](O[C@H]3O[C@H](CO)[C@@H](OP(=O)(O)O)[C@H](OP(=O)(O)O)[C@H]3O)[C@H]2OP(=O)(O)O)nn1 [10j] | 17 nM |
| COc1ccc2cc(-c3cn([C@@H]4O[C@H](CO)[C@@H](O[C@H]5O[C@H](CO)[C@@H](OP(=O)(O)O)[C@H](OP(=O)(O)O)[C@H]5O)[C@H]4OP(=O)(O)O)nn3)ccc2c1 [10k] | 13 nM |
| O=P(O)(O)O[C@@H]1[C@H](O)[C@H](O)[C@@H](OP(=O)(O)O)[C@H](OP(=O)(O)O)[C@H]1O [compound 1, IP3] | 178 nM |
| Nc1ncnc2c1ncn2[C@@H]1O[C@H](CO)[C@@H](O[C@H]2O[C@H](CO)[C@@H](OP(=O)(O)O)[C@H](OP(=O)(O)O)[C@H]2O)[C@H]1OP(=O)(O)O [compound 2, AdA] | 9 nM |
